Literature values, collected in patent US20260125680A1, “COMPOSITIONS AND METHODS FOR IMMUNE CHECKPOINT INHIBITION” (The General Hospital Corporation, priority 2018, published 2026).

How the values were obtained:
pancreatic cancer = conditions: monotherapy
bladder cancer = conditions: confirmatory trial

Row | Substance | response (pancreatic cancer) | primary endpoint of overall survival (bladder cancer)
1 | Ipilimumab: anti-CTLA-4 | ineffective with no responders | –
2 | atezolizumab: FDA approved PD-L1 inhibitor | – | failed to achieve its primary endpoint
